Laboratory results as given in patent US10597375B2, “Halogen-substituted heterocyclic compound” (UBE INDUSTRIES, LTD., priority 2012, dated 2020).

What was measured:
[1] = tested on: LPA-induced histamine release; test: LPA-induced histamine release test in mouse; type: in vivo; conditions: male CD1 mice; oral dose of 10 mg/kg; LPA 300 μg/mouse via tail vein 4 hours after administration; blood 2 minutes after LPA; read-out: efficacy rate (rate of individuals which showed the inhibition rate of 80% or more of plasma histamine)
Method: LPA-Induced Histamine Release Test in Mouse
LPA-induced histamine release test in mouse was carried out according to a method by Swaney et al. (The Journal of Pharmacology and Experimental Therapeutics, 336 (2011), pages 693-700). The test compound was suspended in 0.5% methylcellulose solution (133-14255, Wako), and orally administered to male CD1 mice (body weight: 30 to 40 g, supplied by Charles River Laboratories Japan) at a dose of 10 mL/kg. 4 hours after administration, LPA (857130P, Avanti) dissolved in a 0.1% BSA-containing PBS was administered via the tail vein (300 μg/mouse). Immediately, the mouse was anesthetized with isoflurane, and blood was collected via a vein 2 minutes after the administration of LPA. The blood was put into a test tube containing EDTA, and centrifuged at 4° C., 2,000×g, for 10 minutes to obtain the plasma.
The histamine concentration in the plasma was measured by EIA kit (62HTMPEB, Cisbio Bioassays).

[2] = tested on: A2058 human melanoma cells; test: Cell migration test (LPA-induced, Chemo-Tx); type: cell-based; conditions: LPA 100 nM, 3 hours, read-out: IC50: concentration of the test compound which inhibits the cell migration activity of LPA by 50%
Method: The cell migration test was carried out using Chemo-Tx (registered trademark) (116-8, Neuro Probe). A2058 human melanoma cells (obtained from European Collection of Cell Culture) were cultured in a serum-free EMEM medium for 24 hours, and then re-suspended in a 0.1% BSA-containing DMEM medium to obtain a cell suspension. The test compound dissolved in DMSO in various concentration was each added to the cell suspension, and the suspension was cultured at 37° C. for 15 minutes (the final DMSO concentration of 0.5%). LPA dissolved in a 0.1% BSA-containing DMEM medium (the final concentration of 100 nM) was added to Chemo-Tx 96 well plate, and a Chemo-Tx filter which had been coated with 0.001% Fibronectin on the both surfaces was put on the plate. The suspension of cultured cells (25,000 cells) was added onto the upper surface of the filter and further cultured at 37° C. for 3 hours, and the cells on the upper surface of the filter were removed. After the filter was removed and dried, the cells which had migrated to the lower surface of the filter were stained using Diff-Quik stain (16920, Sysmex). The absorbance of the filter (570 nm) was measured and the concentration of the test compound which inhibits the cell migration activity of LPA by 50%, (1050) was determined by non-linear regression analysis using EXSAS (version 7.6.0, Arm Systex).

Compound | IC50 [2] | responders at 10 mg/kg [1]
C[C@@H](OC(=O)Nc1cc(Cl)sc1-c1ccc(-c2ccc(C3(C(=O)O)CC3)cc2)cc1)c1ccc(F)cc1F [I-64, (R)-1-{4′-[5-Chloro-3-({[1-(2,4-difluorophenyl)ethoxy]carbonyl}amino)thiophen-2-yl]-[1,1′-biphenyl]-4-yl}cyclopropanecarboxylic acid] | ≤ 200 nM | ≥ 50%
C[C@@H](OC(=O)Nc1cc(Cl)sc1-c1ccc(-c2ccc(C3(C(=O)O)CC3)cc2)cc1)c1cc(F)ccc1F [I-68, (R)-1-{4′-[5-Chloro-3-({[1-(2,5-difluorophenyl)ethoxy]carbonyl}amino)thiophen-2-yl]-[1,1′-biphenyl]-4-yl}cyclopropanecarboxylic acid] | ≤ 200 nM | ≥ 50%
Cc1ccccc1[C@@H](C)OC(=O)Nc1cc(F)sc1-c1ccc(-c2ccc(C3(C(=O)O)CC3)cc2)cc1 [I-136, (R)-1-{4′-[5-Fluoro-3-({[1-(o-tolyl)ethoxy]carbonyl}amino)thiophen-2-yl]-[1,1′-biphenyl]-4-yl}cyclopropanecarboxylic acid] | ≤ 200 nM | ≥ 50%
C[C@@H](OC(=O)Nc1cc(Cl)sc1-c1ccc(-c2ccc(C3(C(=O)O)CC3)cc2)nc1)c1ccccc1 [I-196, (R)-1-{4-[5(5-Chloro-3-{[(1-phenylethoxy)carbonyl]amino}thiophen-2-yl)pyridine-2-yl]phenyl}cyclopropanecarboxylic acid] | ≤ 200 nM | ≥ 50%
COc1cc(-c2sc(Cl)cc2NC(=O)O[C@H](C)c2ccccc2)ccc1-c1ccc(C2(C(=O)O)CC2)cc1 [I-350, (R)-1-[4′-(5-Chloro-3-{[(1-phenylethoxy)carbonyl]amino}thiophen-2-yl)-2′-methoxy-[1,1′-biphenyl]-4-yl]cyclopropanecarboxylic acid] | ≤ 200 nM | ≥ 50%
COc1cc(-c2sc(Cl)cc2NC(=O)O[C@H](C)c2ccccc2F)ccc1-c1ccc(C2(C(=O)O)CC2)cc1 [I-354, (R)-1-{4′-[5-Chloro-3-({[1-(2-fluorophenyl)ethoxy]carbonyl}amino)thiophen-2-yl]-2′-methoxy-[1,1′-biphenyl]-4-yl}cyclopropanecarboxylic acid] | ≤ 200 nM | ≥ 50%
COc1cc(-c2sc(Cl)cc2NC(=O)O[C@H](C)c2cccc(F)c2)ccc1-c1ccc(C2(C(=O)O)CC2)cc1 [I-358, (R)-1-{4′-[5-Chloro-3-({[1-(3-fluorophenyl)ethoxy]carbonyl}amino)thiophen-2-yl]-2′-methoxy-[1,1′-biphenyl]-4-yl}cyclopropanecarboxylic acid] | ≤ 200 nM | ≥ 50%
COc1cc(-c2sc(Cl)cc2NC(=O)O[C@H](C)c2ccc(F)cc2)ccc1-c1ccc(C2(C(=O)O)CC2)cc1 [I-362, (R)-1-{4′-[5-Chloro-3-({[1-(4-fluorophenyl)ethoxy]carbonyl}amino)thiophen-2-yl]-2′-methoxy-[1,1′-biphenyl]-4-yl}cyclopropanecarboxylic acid] | ≤ 200 nM | ≥ 50%

The next lines start with results.

IC50 [2] | Compound | responders at 10 mg/kg [1]
≤ 200 nM | CC(OC(=O)Nc1cc(F)sc1-c1ccc(-c2ccc(C3(C(=O)O)CC3)cc2)cc1)c1ccsc1 (racemic) [I-639, (RS)-1-{4′-[5-Fluoro-3-({[1-(thiophen-3-yl)ethoxy]carbonyl}amino)thiophen-2-yl]-[1,1′-biphenyl]-4-yl}cyclopropanecarboxylic acid] | ≥ 50%
≤ 200 nM | Cc1cscc1C(C)OC(=O)Nc1cc(F)sc1-c1ccc(-c2ccc(C3(C(=O)O)CC3)cc2)cc1 (racemic) [I-649, (RS)-1-{4′-[5-Fluoro-3-({[1-(4-methylthiophen-3-yl)ethoxy]carbonyl}amino)thiophen-2-yl]-[1,1′-biphenyl]-4-yl}cyclopropanecarboxylic acid] | ≥ 50%
≤ 200 nM | CC(OC(=O)Nc1cc(F)sc1-c1ccc(-c2ccc(C3(C(=O)O)CC3)cc2)cc1)c1cscc1Cl (racemic) [I-657, (RS)-1-{4′-[3-({[1-(4-Chlorothiophen-3-yl)ethoxy]carbonyl}amino)-5-fluorothiophen-2-yl]-[1,1′-biphenyl]-4-yl}cyclopropanecarboxylic acid] | ≥ 50%
≤ 200 nM | COc1cc(-c2sc(F)cc2NC(=O)OC(C)c2ccsc2)ccc1-c1ccc(C2(C(=O)O)CC2)cc1 (racemic) [I-811, (RS)-1-{4′-[5-Fluoro-3-({[1-(thiophen-3-yl)ethoxy]carbonyl}amino)thiophen-2-yl]-2′-methoxy-[1,1′-biphenyl]-4-yl}cyclopropanecarboxylic acid] | ≥ 50%
≤ 200 nM | COc1cc(-c2sc(Cl)cc2NC(=O)O[C@H](C)c2ccccc2Cl)ccc1-c1ccc(C2(C(=O)O)CC2)cc1 [I-366, (R)-1-{4′-[5-Chloro-3-({[1-(2-chlorophenyl)ethoxy]carbonyl}amino)thiophen-2-yl]-2′-methoxy-[1,1′-biphenyl]-4-yl}cyclopropanecarboxylic acid] | ≥ 50%
≤ 200 nM | COc1cc(-c2sc(Cl)cc2NC(=O)O[C@H](C)c2ccc(Cl)cc2)ccc1-c1ccc(C2(C(=O)O)CC2)cc1 [I-370, (R)-1-{4′-[5-Chloro-3-({[1-(4-chlorophenyl)ethoxy]carbonyl}amino)thiophen-2-yl]-2′-methoxy-[1,1′-biphenyl]-4-yl}cyclopropanecarboxylic acid] | ≥ 50%
≤ 200 nM | COc1cc(-c2sc(Cl)cc2NC(=O)O[C@H](C)c2ccccc2C)ccc1-c1ccc(C2(C(=O)O)CC2)cc1 [I-374, (R)-1-{4′-[5-Chloro-3-({[1-(o-tolyl)ethoxy]carbonyl}amino)thiophen-2-yl]-2′-methoxy-[1,1′-biphenyl]-4-yl}cyclopropanecarboxylic acid] | ≥ 50%
≤ 200 nM | COc1cc(-c2sc(Cl)cc2NC(=O)O[C@H](C)c2ccc(F)cc2F)ccc1-c1ccc(C2(C(=O)O)CC2)cc1 [I-378, (R)-1-{4′-[5-Chloro-3-({[1-(2,4-difluorophenyl)ethoxy]carbonyl}amino)thiophen-2-yl]-2′-methoxy-[1,1′-biphenyl]-4-yl}cyclopropanecarboxylic acid] | ≥ 50%
≤ 200 nM | COc1cc(-c2sc(Cl)cc2NC(=O)O[C@H](C)c2cc(F)ccc2F)ccc1-c1ccc(C2(C(=O)O)CC2)cc1 [I-388, (R)-1-{4′-[5-Chloro-3-({[1-(2,5-difluorophenyl)ethoxy]carbonyl}amino)thiophen-2-yl]-2′-methoxy-[1,1′-biphenyl]-4-yl}cyclopropanecarboxylic acid] | ≥ 50%
≤ 200 nM | COc1cc(-c2sc(F)cc2NC(=O)O[C@H](C)c2ccccc2)ccc1-c1ccc(C2(C(=O)O)CC2)cc1 [I-420] | ≥ 50%
≤ 200 nM | COc1cc(-c2sc(F)cc2NC(=O)O[C@H](C)c2cccs2)ccc1-c1ccc(C2(C(=O)O)CC2)cc1 [I-840, (R)-1-{4′-[5-Fluoro-3-({[1-(thiophen-2-yl)ethoxy]carbonyl}amino)thiophen-2-yl]-2′-methoxy-[1,1′-biphenyl]-4-yl}cyclopropanecarboxylic acid] | 
